Measurements: ChEMBL document CHEMBL5579851, “Synthesis and antifungal evaluation of novel triazole derivatives bearing a pyrazole-methoxyl moiety” (Eur J Med Chem, 2024)
Values after ≈ are worked out from the molar mass of the structure shown. Active and inactive are the calls of the source. No cut-off for these calls is given here.

Legend:
Candida albicans [1] = assay: Antifungal activity against fluconazole-resistant Candida albicans 901 assessed as inhibition of fungal growth incubated for 48 hrs by CLSI based broth microdilution assay; assay type: functional
Candida tropicalis [2] = assay: Antifungal activity against Candida tropicalis 8915 assessed as inhibition of fungal growth incubated for 48 hrs by CLSI based broth microdilution assay; assay type: functional
[3] = Cytotoxicity against HUVEC cells assessed as cell viability at 128 ug/ml incubated for 24 hrs by CCK-8 assay relative to control; assay type: toxicity, cell-based; settings: human, at 128 µg/mL, read-out: Activity
Candida albicans [4] = assay: Antibiofilm activity against Candida albicans SC5314 assessed as inhibition of biofilm formation at 64 ug/mL incubated for 24 hrs by XTT assay relative to control; assay type: functional
Candida parapsilosis = assay: Antifungal activity against Candida parapsilosis 22019 assessed as inhibition of fungal growth incubated for 48 hrs by CLSI based broth microdilution assay; assay type: functional; settings: Lodderomyces parapsilosis
[5] = biological target: T1, Lanosterol 14-alpha demethylase (Candida albicans (strain SC5314 / ATCC MYA-2876) (Yeast), UniProt P10613); assay: Inhibition of CYP51 in Candida albicans SC5314 assessed as obtusifoliol level at 0.0625 ug/ml after 8 hrs by GC-MS analysis relative to control; set-up: scale not given: the % may be the effect or the level left; settings: at 0.0625 µg/mL
T1 sequence (P10613 whole entry): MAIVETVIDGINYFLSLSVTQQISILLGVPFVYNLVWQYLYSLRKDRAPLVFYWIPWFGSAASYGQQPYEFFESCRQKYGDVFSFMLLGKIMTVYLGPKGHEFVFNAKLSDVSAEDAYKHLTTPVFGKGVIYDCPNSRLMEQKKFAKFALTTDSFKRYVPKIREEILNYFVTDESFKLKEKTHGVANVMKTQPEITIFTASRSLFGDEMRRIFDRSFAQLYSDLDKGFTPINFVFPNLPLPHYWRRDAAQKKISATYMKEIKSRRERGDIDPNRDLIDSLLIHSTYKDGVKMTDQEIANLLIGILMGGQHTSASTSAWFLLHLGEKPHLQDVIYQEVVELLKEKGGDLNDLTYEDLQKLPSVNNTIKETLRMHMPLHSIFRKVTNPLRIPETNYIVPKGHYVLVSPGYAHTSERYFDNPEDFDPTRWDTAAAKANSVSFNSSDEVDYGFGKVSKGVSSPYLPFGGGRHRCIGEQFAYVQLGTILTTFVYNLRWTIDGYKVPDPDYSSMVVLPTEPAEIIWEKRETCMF

Candida tropicalis [6] = assay: Potency index, ratio of fluconazole MIC to test compound MIC for antifungal activity against Candida tropicalis 8915 assessed as inhibition of fungal growth incubated for 48 hrs by CLSI based broth microdilution assay; assay type: functional
Candida albicans [7] = assay: Antifungal activity against Candida albicans SC5314 assessed as inhibition of fungal growth at 0.125 ug/ml after 48 hrs by TECAN plate reader analysis relative to control; assay type: functional
[8] = biological target: T1, Lanosterol 14-alpha demethylase; assay: Inhibition of CYP51 in Candida albicans SC5314 assessed as ergosterol level at 0.0625 ug/ml after 8 hrs by GC-MS analysis (reference value: 86.2 %); set-up: scale not given: the % may be the effect or the level left; settings: at 0.0625 µg/mL
Saccharomyces cerevisiae [9] = assay: Antifungal activity against recombinant Saccharomyces cerevisiae Y2768 overexpressing CauErg11 T132F mutant assessed as inhibition of fungal growth incubated for 48 hrs by CLSI based broth microdilution assay; assay type: functional
Saccharomyces cerevisiae [10] = assay: Antifungal activity against recombinant Saccharomyces cerevisiae Y2301 overexpressing ScErg11 Y140F mutant assessed as inhibition of fungal growth incubated for 48 hrs by CLSI based broth microdilution assay; assay type: functional
Candida albicans [11] = assay: Antifungal activity against Candida albicans SC5314 assessed as inhibition of hyphae formation at 0.625 ug/ml after 3 hrs by inverted microscopic analysis relative to control; assay type: functional
Saccharomyces cerevisiae [12] = assay: Selectivity index, ratio of MIC for antifungal activity against recombinant Saccharomyces cerevisiae Y525 overexpressing CaMdr1 to MIC for antifungal activity against recombinant Saccharomyces cerevisiae Y2411 overexpressing ScErg11; assay type: functional
Candida tropicalis [13] = assay: Potency index, ratio of ravuconazole MIC to test compound MIC for antifungal activity against Candida tropicalis 8915 assessed as inhibition of fungal growth incubated for 48 hrs by CLSI based broth microdilution assay; assay type: functional
Saccharomyces cerevisiae [14] = assay: Antifungal activity against recombinant Saccharomyces cerevisiae Y2767 overexpressing CauErg11 assessed as inhibition of fungal growth incubated for 48 hrs by CLSI based broth microdilution assay; assay type: functional
Saccharomyces cerevisiae [15] = assay: Antifungal activity against recombinant Saccharomyces cerevisiae Y2513 overexpressing ScErg11 Y140H mutant assessed as inhibition of fungal growth incubated for 48 hrs by CLSI based broth microdilution assay; assay type: functional
Cryptococcus neoformans = assay: Antifungal activity against Cryptococcus neoformans 32609 assessed as inhibition of fungal growth at 0.125 ug/ml measured up to 48 hrs by TECAN plate reader analysis; assay type: functional, organism-based; settings: dose 0.125 µg/ml
Cell membrane = assay: Induction of membrane permeabilization in Candida albicans SC5314 assessed as increase in fluorescence at 0.0625 to 0.5 ug/ml incubated for 8 hrs by propidium iodide staining based fluorescence microscopic analysis; settings: dose 0.0625-0.5 µg/ml
Saccharomyces cerevisiae [16] = assay: Antifungal activity against recombinant Saccharomyces cerevisiae Y2721 overexpressing CpErg11/CpCpr assessed as inhibition of fungal growth incubated for 48 hrs by CLSI based broth microdilution assay; assay type: functional
Saccharomyces cerevisiae [17] = assay: Antifungal activity against recombinant Saccharomyces cerevisiae Y2462 overexpressing ScErg11/ScNcp1 assessed as inhibition of fungal growth incubated for 48 hrs by CLSI based broth microdilution assay; assay type: functional
Candida albicans [18] = assay: Antifungal activity against Candida albicans SC5314 assessed as inhibition of hyphae length after 3 hrs by inverted microscopic analysis; assay type: functional, organism-based; settings: dose 0.0625-1 µg/ml
[19] = biological target: T1, Lanosterol 14-alpha demethylase; assay: Inhibition of CYP51 in Candida albicans SC5314 assessed as lanosterol level at 0.0625 ug/ml after 8 hrs by GC-MS analysis (reference value: 5.9 %); set-up: scale not given: the % may be the effect or the level left; settings: at 0.0625 µg/mL
Saccharomyces cerevisiae [20] = assay: Antifungal activity against recombinant Saccharomyces cerevisiae Y2459 overexpressing CaErg11/CaCpr assessed as inhibition of fungal growth incubated for 48 hrs by CLSI based broth microdilution assay; assay type: functional
Pichia kudriavzevii = assay: Antifungal activity against Candida krusei 4996 assessed as inhibition of fungal growth incubated for 48 hrs by CLSI based broth microdilution assay; assay type: functional
Candida albicans [21] = assay: Antifungal activity against Candida albicans SC5314 assessed as inhibition of fungal growth incubated for 48 hrs by CLSI based broth microdilution assay; assay type: functional
Candida albicans [22] = assay: Antibiofilm activity against Candida albicans SC5314 assessed as increase in matured biofilm distruption incubated for 24 hrs by XTT assay; assay type: functional, organism-based; settings: dose 0.25-64 µg/ml
Saccharomyces cerevisiae [23] = assay: Antifungal activity against recombinant Saccharomyces cerevisiae Y525 overexpressing CaMdr1 assessed as inhibition of fungal growth incubated for 48 hrs by CLSI based broth microdilution assay; assay type: functional
Saccharomyces cerevisiae [24] = assay: Antifungal activity against recombinant Saccharomyces cerevisiae Y2766 overexpressing CauCdr1 assessed as inhibition of fungal growth incubated for 48 hrs by CLSI based broth microdilution assay; assay type: functional
Saccharomyces cerevisiae [25] = assay: Antifungal activity against recombinant Saccharomyces cerevisiae Y2711 overexpressing CnErg11 assessed as inhibition of fungal growth incubated for 48 hrs by CLSI based broth microdilution assay; assay type: functional
[Candida] auris [26] = Antifungal activity against fluconazole-resistant Candida auris 919 assessed as inhibition of fungal growth incubated for 48 hrs by CLSI based broth microdilution assay; assay type: functional; settings: Candidozyma auris
[Candida] auris [27] = Antifungal activity against fluconazole-resistant Candida auris 891 assessed as inhibition of fungal growth incubated for 48 hrs by CLSI based broth microdilution assay; assay type: functional; settings: Candidozyma auris
[Candida] auris [28] = Antifungal activity against fluconazole-resistant Candida auris 918 assessed as inhibition of fungal growth incubated for 48 hrs by CLSI based broth microdilution assay; assay type: functional; settings: Candidozyma auris
Nakaseomyces glabratus = assay: Antifungal activity against Candida glabrata 537 assessed as inhibition of fungal growth at 2 ug/ml measured up to 48 hrs by TECAN plate reader analysis; assay type: functional, organism-based; settings: dose 2.0 µg/ml
Saccharomyces cerevisiae [29] = assay: Antifungal activity against recombinant Saccharomyces cerevisiae Y570 overexpressing CaCdr1 assessed as inhibition of fungal growth incubated for 48 hrs by CLSI based broth microdilution assay; assay type: functional
Saccharomyces cerevisiae [30] = assay: Antifungal activity against recombinant Saccharomyces cerevisiae Y2716 overexpressing CpErg11 Y132F mutant/ CpCpr assessed as inhibition of fungal growth incubated for 48 hrs by CLSI based broth microdilution assay; assay type: functional

## C[C@@H](OCc1ccn(Cc2ccc(Cl)cc2)n1)[C@](O)(Cn1cncn1)c1ccc(F)cc1F
Candida albicans [1]
  MIC: 16 µg/mL (≈ 33.8 µM)
Candida tropicalis [2]
  MIC: 0.25 µg/mL (≈ 0.528 µM)
[3]
  viability at 24 h, 128 ug/ml: 64.5%
Candida albicans [4]
  inhibition at 64 µg/mL: > 55%
Candida parapsilosis
  MIC: 0.25 µg/mL (≈ 0.528 µM)
[5]
  Activity: ~ 20%
Candida tropicalis [6]
  Ratio: 256
Candida albicans [7]
  inhibition at 0.125 µg/mL: 100%
[8]
  Activity: 0%
Saccharomyces cerevisiae [9]
  MIC: 0.0313 µg/mL
Saccharomyces cerevisiae [10]
  MIC: 0.008 µg/mL
Candida albicans [11]
  inhibition at 0.625 µg/mL: 100%
Saccharomyces cerevisiae [12]
  Ratio: 16
Candida tropicalis [13]
  Ratio: 32
Saccharomyces cerevisiae [14]
  MIC: 0.008 µg/mL
Saccharomyces cerevisiae [15]
  MIC: 0.008 µg/mL
Cryptococcus neoformans
  inhibition: Active
Cell membrane
  Activity: Active
Saccharomyces cerevisiae [16]
  MIC: 0.016 µg/mL
Saccharomyces cerevisiae [17]
  MIC: 0.0313 µg/mL
Candida albicans [18]
  inhibition: Dose-Dependent Effect
[19]
  Activity: > 25%
Saccharomyces cerevisiae [20]
  MIC: 0.008 µg/mL
Pichia kudriavzevii
  MIC: 2 µg/mL (≈ 4.22 µM)
Candida albicans [21]
  MIC: ≤ 0.125 µg/mL
Candida albicans [22]
  Activity: Dose-Dependent Effect
Saccharomyces cerevisiae [23]
  MIC: 0.125 µg/mL
Saccharomyces cerevisiae [24]
  MIC: 2 µg/mL
Saccharomyces cerevisiae [25]
  MIC: 0.008 µg/mL
[Candida] auris [26]
  MIC: 8 µg/mL (≈ 16.9 µM)
[Candida] auris [27]
  MIC: 8 µg/mL (≈ 16.9 µM)
[Candida] auris [28]
  MIC: 8 µg/mL (≈ 16.9 µM)
Nakaseomyces glabratus
  inhibition: inactive
Saccharomyces cerevisiae [29]
  MIC: 16 µg/mL
Saccharomyces cerevisiae [30]
  MIC: 0.016 µg/mL
